Assay results reported in patent US7273862B2, “Aminoalkyl substituted (benzodioxan, benzofuran or benzopyran) derivatives” (Janssen Pharmaceutica N.V., priority 1999, dated 2007).
Structures can show the parent of a compound that is named as a salt.

How the values were obtained:
[1] = tested on: fundus of the stomach (gastric tone) in conscious dogs; assay: Gastric tone measured by an electronic barostat in conscious dogs; type: in vivo, beagle dogs; details: I.D. administration, 0.63 mg/kg, 1 hour observation period, constant pressure of 6 mmHg
Description: C. Pharmacological Examples C.1. Gastric Tone Measured by an Electronic Barostat in Conscious Dogs
Gastric tone cannot be measured by manometric methods. Therefore an electronic barostat was used. This allows the study of the physiological pattern and regulation of gastric tone in conscious dogs and the influence of test-compounds on this tone.
The barostat consists of an air injection system which is connected by a double-lumen 14-French polyvinyl tube to an ultrathin flaccid polyethylene bag (maximal volume:±700 ml). Variations in gastric tone were measured by recording changes in the volume of air within an intragastric bag, maintained at a constant pressure. The barostat maintains a constant pressure (preselected) within a flaccid air-filled bag introduced into the stomach, changing the volume of air within the bag by an electronic feedback system.
Thus, the barostat measures gastric motor activity (contraction or relaxation) as changes in intragastric volume (decrease or increase resp.) at a constant intragastric pressure. […]
When during a stabilisation period of maximum 90 minutes, the gastric volume is stable during 15 minutes at a constant pressure of 6 mmHg (about 0.81 kPa), the test compound was administered subcutaneously (S.C.), or intraduodenally (I.D.). Test compounds were screened, i.e. changes in gastric volume were measured, usually at 0.63 mg/kg. […]

melting point [°C] | SMILES | Maximum change in volume (mean maximal change in volume on relaxation of the fundus) [1] [mL]
138 | O=C1NCCCN1CC(O)CNCC(O)C1CCc2ccccc2O1 (centres unmarked) (as salt: hydrochloride) (hydrate or solvate) [Compound 15, [S(A)]-1-[3-[[2-(3,4-dihydro-2H-1-benzopyran-2-yl)-2-hydroxyethyl]amino]-2-hydroxypropyl]tetrahydro-2(1H)-pyrimidinone monohydrochloride dihydrate] | –
– | O=C1NCCCN1CC(O)CNCC(O)C1CCc2ccccc2O1 (centres unmarked) [Compound 15, [S(A)]-1-[3-[[2-(3,4-dihydro-2H-1-benzopyran-2-yl)-2-hydroxyethyl]amino]-2-hydroxypropyl]tetrahydro-2(1H)-pyrimidinone monohydrochloride dihydrate] | 5
